From patent US20190175560A1, “MEBENDAZOLE CANCER THERAPIES AND METHODS OF USE” (Shepherd Therapeutics, Inc., priority 2017, published 2019)

Legend:
A2780cis cells = experiment: MBZ cell viability IC50 (CellTiter Glo); type: cell-based; settings: 72 hours
Experimental: (§1) The effect of mebendazole administration on cell lines derived from exemplary cancers was tested. One approach to determining the effectiveness of mebendazole in the treatment of cancer comprises in vitro testing. In this approach, cancer cell lines representative of the cancers of the disclosure are cultured in vitro according to standard techniques (see, for example, Human Cell Culture Protocols, Third Edition, […] R. D. Hughes, Editors, Humana Press, 2012), and increasing concentrations of mebendazole are administered to determine the IC50 value. As used herein, the term “IC50 value” refers to the concentration of a compound (for example mebendazole) wherein the response to that compound (such as inhibited cellular viability) is reduced by half. The IC50 is thus a measure of the effectiveness of a compound in inhibiting a biological process. […] Based on this biology, several rare cancer tumor cell lines including neuroblastoma, rhabdomyosarcoma and Ewing sarcoma were analyzed for sensitivity to MBZ treatment in vitro. […] In all cases, including those described below, the viable cells were determined using the CellTiter Glo® kit and an IC50 curve was generated using the PRISM software. […] FIGS. 1 and 2 show the effect of mebendazole on 3 ovarian cancer derived cell lines, A2780cis, SKOV-3 and TOV-112D at 24 hours, 48 hours and 72 hours. […] Percent cell viability is shown on the Y-axis, from 0 to 150 in units of 25. A2780cis cell data are represented by filled circles and a dotted line. SKOV-3 cell data are represented by squares and a solid line. TOV-112D cell data are represented by triangles and a dashed line. […] In FIG. 2, on the X-axis, the log concentration of mebendazole in μM, indicated from -4 to 4 in units of 2. In FIG. 2, on the Y-axis, percent viability is shown, from 0 to 125 in units of 25.

[1] = system: SKOV-3 ovarian carcinoma cell line; experiment: MBZ cell viability IC50 (CellTiter Glo); type: cell-based; settings: Homo sapiens, SK-OV-3, 72 hours, 0-50 μM
Experimental: as §1

TOV-112D cells = experiment: MBZ cell viability IC50 (CellTiter Glo); type: cell-based; settings: Homo sapiens, TOV112D, 72 hours
Experimental: as §1

[2] = system: CHLA-9 Ewing's sarcoma cell line; experiment: MBZ cell viability IC50 (CellTiter Glo); type: cell-based; settings: 72 hours
Experimental: (§2) The effect of mebendazole administration on cell lines derived from exemplary cancers was tested. One approach to determining the effectiveness of mebendazole in the treatment of cancer comprises in vitro testing. In this approach, cancer cell lines representative of the cancers of the disclosure are cultured in vitro according to standard techniques (see, for example, Human Cell Culture Protocols, Third Edition, […] R. D. Hughes, Editors, Humana Press, 2012), and increasing concentrations of mebendazole are administered to determine the IC50 value. As used herein, the term “IC50 value” refers to the concentration of a compound (for example mebendazole) wherein the response to that compound (such as inhibited cellular viability) is reduced by half. The IC50 is thus a measure of the effectiveness of a compound in inhibiting a biological process. […] Based on this biology, several rare cancer tumor cell lines including neuroblastoma, rhabdomyosarcoma and Ewing sarcoma were analyzed for sensitivity to MBZ treatment in vitro. […] In all cases, including those described below, the viable cells were determined using the CellTiter Glo® kit and an IC50 curve was generated using the PRISM software.

[3] = system: NCI-H295R adrenal cortical carcinoma cell line; experiment: MBZ cell viability IC50 (CellTiter Glo); type: cell-based; settings: Homo sapiens, 72 hours
Experimental: as §2

[4] = system: Rh-30 rhabdomyosarcoma cell line; experiment: MBZ cell viability IC50 (CellTiter Glo); type: cell-based; settings: Rh30, 72 hours
Experimental: as §2

[5] = system: Rh-41 rhabdomyosarcoma cell line; experiment: MBZ cell viability IC50 (CellTiter Glo); type: cell-based; settings: Homo sapiens, Rh41, 72 hours
Experimental: as §2

[6] = system: SK-UT-1B leiomyosarcoma cell line; experiment: MBZ cell viability IC50 (CellTiter Glo); type: cell-based; settings: Homo sapiens, Skut1B, 72 hours
Experimental: as §2

[7] = system: SNU-16 gastric carcinoma cell line; experiment: MBZ cell viability IC50 (CellTiter Glo); type: cell-based; settings: Homo sapiens, 72 hours
Experimental: as §2

[8] = system: SW-13 adrenal cortical carcinoma cell line; experiment: MBZ cell viability IC50 (CellTiter Glo); type: cell-based; settings: Homo sapiens, SW13, 72 hours
Experimental: as §2

[9] = system: TC-32 Ewing's sarcoma cell line; experiment: MBZ cell viability IC50 (CellTiter Glo); type: cell-based; settings: Homo sapiens, 72 hours
Experimental: as §2

[10] = system: TC-71 Ewing's sarcoma cell line; experiment: MBZ cell viability IC50 (CellTiter Glo); type: cell-based; settings: 72 hours
Experimental: as §2

ACCX5M1 PDX tumors = experiment: ACC patient-derived xenograft (PDX) model, daily oral MBZ; type: in vivo, mice; settings: 50 or 200 mg/kg daily oral
Experimental: (§3) The effectiveness of mebendazole can be assayed in vivo using a patient derived xenograft mouse model. In patient derived xenograft mice, cancerous cells isolated from a cancer patient are implanted into an immunodeficient mouse, and allowed to form tumors. The mice are then administered mebendazole, and the effect on tumor size and mouse viability is assayed. As xenograft cancers can be implanted from a variety of patient sources, the effectiveness of mebendazole treatment on multiple cancers can be assayed in this manner. Human cancer cell lines such as those tested in vitro can similarly be used in mouse xenograft tumor models.
(§4) Despite a deepening understanding of the molecular events that lead to sustained tumor growth, there are currently no approved therapies for ACC. Identification of therapies for ACC has been hampered by the lack of ACC cell lines and transgenic mouse models. To circumvent these issues, the activity of MBZ was tested in several ACC patient-derived xenograft (PDX) models. Athymic nude mice were implanted subcutaneously with PDX tumors and treatment was initiated when tumors reached a size of 125-300 mm^3. Mice were randomized into three treatment groups to receive daily treatment with vehicle or MBZ at either 50 or 200 mg/kg for the duration of the study. Tumor size was measured twice weekly.

ACCX9 PDX tumors = experiment: as above; type: in vivo, mice; settings: for median survival: vehicle 29.5 days
Experimental: as §3, §4

[11] = system: PC12 pheochromocytoma/paraganglioma cell line; experiment: Synergy of MBZ or HA-PLGA-MBZ with chemotherapeutic agents (Chou-Talalay CI, Cell Titer Glo); type: cell-based; settings: PC12 + Vincristine
Experimental: For in vitro experiments, cells were plated in triplicate and treated with a range of concentrations of MBZ and relevant chemotherapeutic agents in a complete Latin square.
Cells were plated in triplicate and treated with a range of 5 concentrations of MBZ in combination with 5 concentrations of chemotherapeutic agents in a complete Latin square. Following a 72 hour incubation, cell viability was determined using Cell Titer Glo.
In table 22 below, cells were plated in triplicate and treated with a range of 5 concentrations of MBZ or HA-PLGA-MBZ nanoparticles containing a molar equivalent of MBZ, and 5 concentrations of relevant chemotherapeutic agents in a complete Latin square. Combination indexes (CI) were determined based on the method described by Chou-Talalay with a CI value less than 0.9 indicating synergy. […] Numbers in parentheses represent the range of synergistic CI values for each cell line and drug combination.

DMS-114 cells = experiment: MBZ vs HA-PLGA-MBZ cell viability IC50 (Cell Titer Glo); type: cell-based; settings: Homo sapiens, 72 hour incubation
From the text: (§5) An IC50 for each treatment was established using the PRISM software.

HCT-116 cells = experiment: as above; type: cell-based; settings: Homo sapiens, 72 hour incubation
From the text: as §5

SKOV-3 cells = experiment: as above; type: cell-based; settings: Homo sapiens, SK-OV-3, 72 hour incubation
From the text: as §5

## COC(=O)Nc1nc2ccc(C(=O)c3ccccc3)cc2[nH]1 [MBZ, methyl N-(6-benzoyl-1H-benzimidazol-2-yl)carbamate]
A2780cis cells
  IC50: 250 nM
[1]
  IC50: ~4.4 µM
TOV-112D cells
  IC50: 200 nM
[2]
  IC50: 1020 nM
[3]
  IC50: 100 nM
[4]
  IC50: 100 nM
[5]
  IC50: 490 nM
[6]
  IC50: 100 nM
[7]
  IC50: 420 nM
[8]
  IC50: 260 nM
[9]
  IC50: 410 nM
[10]
  IC50: 470 nM
ACCX5M1 PDX tumors
  tumor growth: did not inhibit tumor growth
ACCX9 PDX tumors; 50 mg/kg daily oral, not statistically significant
  median survival: 33 days
ACCX9 PDX tumors; 200 mg/kg
  tumor volume: decrease in tumor volume
ACCX9 PDX tumors; 200 mg/kg daily oral
  median survival: 38 days
ACCX9 PDX tumors; highest dose of 200 mg/kg
  anti-tumor activity: statistically significant anti-tumor activity
[11]
  range of synergistic CI values: Yes- (0.274-0.870)
DMS-114 cells
  IC50: 800 nM
HCT-116 cells
  IC50: 320 nM
SKOV-3 cells
  IC50: 680 nM
